Test results as given in paper PMC12624432, “Development of Novel ^18F‑Labeled Selective Orexin‑2 Receptor Radioligands for Positron Emission Tomography” (ACS Pharmacology & Translational Science, 2025).
Entries after “also recorded” stand apart in the source; their conditions may differ.

Legend:
OX2R [1] = assay: OX2R binding affinity; conditions: for selectivity over OX1R: OX2R over OX1R; for selectivity (OX2R/OX1R): ratio of Ki OX1 to Ki OX2
Experimental log D = format: physicochemical
Text: 1 Representative Pharmacological and Physicochemical Properties of 1 and 2 | column: compound 1; compound 2

sigma-2 = sigma-2 (Homo sapiens, UniProt Q5BJF2); assay: Off-target binding, sigma-2; conditions: read-out: K i sigma-2
Sequence of sigma-2 (Q5BJF2 whole entry): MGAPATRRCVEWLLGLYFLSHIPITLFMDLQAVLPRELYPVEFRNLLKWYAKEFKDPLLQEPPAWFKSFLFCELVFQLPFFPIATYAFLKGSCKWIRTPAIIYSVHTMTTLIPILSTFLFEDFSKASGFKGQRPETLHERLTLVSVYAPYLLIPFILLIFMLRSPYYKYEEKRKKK
Protocol: (§1) Target selectivity over OX1R exceeded 600-fold for both compounds, satisfying a key prerequisite for selective OX2R imaging. […] CNS penetration was further predicted using Percepta, yielding log BB values of −0.14 and −0.36 for compounds 1 and 2, respectively, well above the empirical threshold for BBB permeability (log BB > −1). Additionally, off-target binding screening was conducted for compounds 1 and 2 toward 59 major CNS targets (Figures S1 and S2).
(§2) 1. Supporting Figures and Tables
(§3) Figure S1. Off-target pharmacological evaluation of compound 1. Initial screening of 59 major CNS targets at a concentration of 1 at 10 μM, including common GPCRs, enzymes, ion channels, and transporters. All data are mean ± SD (n ≥ 3).
(§4) Figure S2. Off-target pharmacological evaluation of compound 2. Initial screening of 59 major CNS targets at a concentration of 2 at 10 μM, including common GPCRs, enzymes, […]

NR2B receptors = NR2B receptors (Homo sapiens, UniProt Q05586+Q13224); assay: Off-target binding, NR2B; conditions: read-out: K i NR2B
Sequence of NR2B receptors (Q13224 27-1484, other chains not shown): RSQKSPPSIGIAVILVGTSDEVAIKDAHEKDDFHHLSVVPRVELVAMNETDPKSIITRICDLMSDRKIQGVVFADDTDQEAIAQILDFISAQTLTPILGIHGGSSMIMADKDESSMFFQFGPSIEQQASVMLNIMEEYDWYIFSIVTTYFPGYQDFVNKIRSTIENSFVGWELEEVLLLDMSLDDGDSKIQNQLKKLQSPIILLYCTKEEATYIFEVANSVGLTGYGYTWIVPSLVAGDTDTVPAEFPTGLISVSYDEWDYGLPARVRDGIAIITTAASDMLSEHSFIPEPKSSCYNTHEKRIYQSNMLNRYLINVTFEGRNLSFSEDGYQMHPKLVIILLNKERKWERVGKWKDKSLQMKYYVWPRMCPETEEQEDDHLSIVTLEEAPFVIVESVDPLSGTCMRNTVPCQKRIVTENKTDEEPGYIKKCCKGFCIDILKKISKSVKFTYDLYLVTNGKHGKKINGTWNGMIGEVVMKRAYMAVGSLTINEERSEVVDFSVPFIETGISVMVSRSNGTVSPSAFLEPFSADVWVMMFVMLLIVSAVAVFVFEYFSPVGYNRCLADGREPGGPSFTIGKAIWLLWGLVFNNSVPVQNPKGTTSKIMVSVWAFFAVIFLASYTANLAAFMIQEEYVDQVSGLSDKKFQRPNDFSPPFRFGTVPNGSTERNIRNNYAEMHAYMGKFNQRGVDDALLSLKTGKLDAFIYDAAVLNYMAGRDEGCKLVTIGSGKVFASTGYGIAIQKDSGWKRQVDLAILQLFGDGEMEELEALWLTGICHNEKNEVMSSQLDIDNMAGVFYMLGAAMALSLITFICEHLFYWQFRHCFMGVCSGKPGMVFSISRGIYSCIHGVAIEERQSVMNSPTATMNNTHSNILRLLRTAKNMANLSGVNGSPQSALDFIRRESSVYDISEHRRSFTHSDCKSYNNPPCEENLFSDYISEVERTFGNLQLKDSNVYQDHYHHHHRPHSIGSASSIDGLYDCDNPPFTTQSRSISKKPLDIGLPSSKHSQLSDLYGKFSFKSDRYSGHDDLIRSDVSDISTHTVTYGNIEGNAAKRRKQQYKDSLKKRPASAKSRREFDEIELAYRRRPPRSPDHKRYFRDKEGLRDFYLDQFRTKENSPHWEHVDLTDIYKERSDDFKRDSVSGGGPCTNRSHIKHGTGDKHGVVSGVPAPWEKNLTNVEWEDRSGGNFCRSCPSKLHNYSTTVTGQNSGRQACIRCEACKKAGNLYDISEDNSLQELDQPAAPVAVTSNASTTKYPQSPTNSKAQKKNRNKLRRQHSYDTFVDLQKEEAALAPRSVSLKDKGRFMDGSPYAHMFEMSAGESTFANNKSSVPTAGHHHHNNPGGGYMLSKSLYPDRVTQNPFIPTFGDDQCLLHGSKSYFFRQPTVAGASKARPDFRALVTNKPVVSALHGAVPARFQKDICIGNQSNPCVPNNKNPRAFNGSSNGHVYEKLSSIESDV
Protocol: as §1, §2, §3, §4

[2] = tested on: 59 major CNS targets (GPCRs, enzymes, ion channels, transporters); assay: Off-target binding screening of 59 major CNS targets; conditions: 10 μM; significant = > 50%; except sigma 2 (and NR2B for 1)
Protocol: as §1, §2, §3, §4

OX2R [3] = target: OX2R; design: method as in earlier work; conditions: no binding method in paper; compounds previously reported; read-out: K i/OX2; cited from earlier work
OX1R = target: OX1R; design: method as in earlier work; conditions: no binding method in paper; compounds previously reported; read-out: K i/OX1; cited from earlier work
OX2R [4] = tested on: OX2R; design: method as in not given; conditions: introduction, literature statement; ref not given; cited from earlier work
[5] = In vitro tracer stability in saline; format: physicochemical; conditions: over the studied time intervals
Protocol: (§5) [^18F]1 and [^18F]2 were obtained in 24% and 53% decay-corrected radiochemical yields (RCYs) with molar activities of 53 GBq/μmol and 38 GBq/μmol, respectively. […] Furthermore, in vitro stability tests of [^18F]1 and [^18F]2 were conducted in saline, serums, and liver microsomes across species.

[6] = In vitro tracer stability in serum; format: in vitro ADME; conditions: mouse, rat, nonhuman primate and human serum
Protocol: as §5

[7] = In vitro tracer stability in liver microsomes; format: in vitro ADME; conditions: mouse, rat and human liver microsomes
Protocol: as §5
Figure S3. Stability of [ 18F]1 in liver microsomes. (A) Stability of [ 18F]1 in mouse liver microsome; (B) Stability of [18F]1 in rat liver microsome; (C) Stability of [ 18F]1 in human […]
Figure S4. Stability of [ 18F]2 in liver microsomes. (A) Stability of [ 18F]2 in mouse liver microsome; (B) Stability of [18F]2 in rat liver microsome; (C) Stability of [ 18F]2 in human […]
Figure S5. TACs of [ 18F]1 in the whole rat brain under baseline and blocking (elacridar, elacridar and EMPA, or elacridar and LSN2424100; elacridar in 5 mg/kg, EMPA and LSN2424100 in 1 mg/kg) conditions; All data are mean ± SD, n ≥ 3. […]

[8] = Radiometabolic analysis in plasma and brain; format: in vivo, SD rats; conditions: rat brain homogenate, 30 min postinjection
Protocol: According to a previous report, SD rats were euthanized 30 min after the administration of [^18F]1 or [^18F]2. The brain was collected, homogenized with cold MeCN and PBS, and centrifuged (14,000g, 5 min) at 4 °C. The supernatant was analyzed by HPLC, and both tracers and radiometabolites were collected and measured by a γ counter. The same procedure was conducted for plasma.

OX2R [9] = target: T1, OX2R (Rattus norvegicus, UniProt P56719); assay: In vitro autoradiography on rat brain sections; format: binding; design: from tissue; host or cells: rat brain sections; conditions: blocking with EMPA, LSN2424100 or authentic reference compound, 10 μM, across regions
T1 sequence (P56719 1-460): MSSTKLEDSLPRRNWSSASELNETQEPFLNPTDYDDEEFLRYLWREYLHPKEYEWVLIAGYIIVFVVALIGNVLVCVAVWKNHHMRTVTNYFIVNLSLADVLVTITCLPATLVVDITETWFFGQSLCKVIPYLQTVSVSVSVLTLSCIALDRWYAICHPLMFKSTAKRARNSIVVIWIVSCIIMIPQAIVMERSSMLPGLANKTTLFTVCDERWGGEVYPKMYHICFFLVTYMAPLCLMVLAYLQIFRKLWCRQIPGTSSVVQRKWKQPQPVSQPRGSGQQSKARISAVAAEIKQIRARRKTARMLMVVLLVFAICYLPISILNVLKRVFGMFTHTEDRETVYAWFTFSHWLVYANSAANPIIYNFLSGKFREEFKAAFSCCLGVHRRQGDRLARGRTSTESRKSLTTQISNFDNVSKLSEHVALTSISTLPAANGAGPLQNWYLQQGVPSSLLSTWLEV
Protocol: According to a previous report, rat brain sections were incubated with Tris-HCl buffer (50 mM) and then with [^18F]1 or [^18F]2. In the blocking study, brain sections were incubated with the tracer in the presence of 1, 2, EMPA, or LSN2424100 (10 μM). Then the brain sections were washed with the cold buffer, dried, exposed to an imaging screen, and scanned with a Typhoon biomolecular imager.

OX2R [10] = target: T1, OX2R; assay: Dynamic PET imaging in the rat brain; format: in vivo, Sprague–Dawley rats; design: from tissue; host or cells: brain of living Sprague-Dawley rats; conditions: for tracer uptake reduction under blocking: EMPA or LSN2424100 1 mg/kg after elacridar pretreatment, all brain regions; for peak SUV in brain: baseline, 0.5 min postinjection; for increase in SUV0–60 min with elacridar: co-administration of elacridar 5 mg/kg (P-gp/BCRP inhibitor), across brain regions
Protocol: PET imaging was performed according to previous reports , with minor modifications. [^18F]1 or [^18F]2 (40 μCi) was administered via the tail vein of SD rats, and dynamic scans were performed with a G8 PET scanner (Sofie) for 60 min. In the blocking study, elacridar (5 mg/kg) and OX2R antagonist (EMPA or LSN2424100, 1 mg/kg) were injected at 20 and 10 min before the administration of the tracer, respectively.

selectivity (OX2R/OX1R) (OX2R [1]) | logD (Experimental log D) | Ki (sigma-2) [nM] | Ki (NR2B receptors) [nM] | Compound | selectivity over OX1R (OX2R [1]) | off-target binding toward 59 major CNS targets [2] | Ki (OX2R [3]) [nM] | Ki (OX1R) [nM] | selectivity for OX2R (OX2R [4]) [fold] | radiometabolites in saline (stability) [5] | radiometabolites in serum (stability) [6] | radiometabolites in liver microsomes (stability) [7] | intact parent tracer in brain [8] | autoradiography signal reduction under blocking (OX2R [9]) | tracer uptake reduction under blocking (OX2R [10]) | peak SUV in brain (OX2R [10]) | increase in SUV0–60 min with elacridar (OX2R [10]) [%]
890 | 3.43 | 2680 | 9480 | Cc1c(C#N)ccnc1O[C@@H]1CC[C@@H](C)N(C(=O)c2cc(F)ccc2-c2nccs2)C1 [compound 1, 2-(((3R,6R)-1-(5-Fluoro-2-(thiazol-2-yl)benzoyl)-6-methylpiperidin-3-yl)oxy)-3-methylisonicotinonitrile] | exceeded 600 fold | No off-target activity was observed; also recorded: No significant off-target | 0.1 | 89 |  |  |  |  |  |  |  |  | 
 |  |  |  | orexin B: endogenous neuropeptide ligand of the orexin receptors, selective for OX2R |  |  |  |  | > 10 |  |  |  |  |  |  |  | 
658 | 2.54 | 4730 |  | C[C@@H]1CC[C@@H](Oc2cc(C#N)ccn2)CN1C(=O)c1cc(F)ccc1-c1ncccn1 [compound 2, 2-(((3R,6R)-1-(5-Fluoro-2-(pyrimidin-2-yl)benzoyl)-6-methylpiperidin-3-yl)oxy)isonicotinonitrile] | exceeded 600 fold | No off-target activity was observed; also recorded: No significant off-target | 1 | 658 |  |  |  |  |  |  |  |  | 
 |  |  |  | Cc1c(C#N)ccnc1O[C@@H]1CC[C@@H](C)N(C(=O)c2cc([18F])ccc2-c2nccs2)C1 [[^18F]1] | > 600 fold |  | 0.1 |  |  | No appreciable radiometabolites were detected | No appreciable radiometabolites were detected | No appreciable radiometabolites were detected | ca. 90% | 54–84% | 40–43% | 2.1 | > 100
 |  |  |  | CC1CCC(Oc2cc(C#N)ccn2)CN1C(=O)c1cc([18F])ccc1-c1ncccn1 (stereo not drawn) [[^18F]2] | > 600 fold |  | 1 |  |  | No appreciable radiometabolites were detected | No appreciable radiometabolites were detected | No appreciable radiometabolites were detected | ca. 90% | 51–71% | 23–46% | 1.8 | > 100
